Key:
MIA PaCa-2 cells [1] = experiment: In vitro anti-proliferative activity in combination with gemcitabine against MIA PaCa-2 cells; format: cell-based
Description: (§1) MIA PaCa-2 cells were seeded on a 384-well plate at 3000 cells/well, and 20 nM gemcitabine was added. After overnight adherence culture, DMSO or the compounds serially diluted 1:5 from 1000 nM were added. The viability was assessed 72 h after dosing by measuring the intracellular ATP content. The inhibition percentage of viable cells by the compounds was calculated by comparing with the DMSO group, and the IC50 value was calculated.

recombinant protein MYT1 = recombinant protein MYT1 (Homo sapiens (Human), UniProt Q99640); experiment: In vitro assay for inhibiting MYT1 kinase activity (ADP-GLO); format: biochemical; settings: 10 μM ATP, read-out: Inhibitory activity against recombinant protein MYT1 IC50
Description: Recombinant MYT1 protein and the compounds were pre-incubated at room temperature for 15 min, and 10 μM ATP was then added to start the reaction. The mixture was incubated at room temperature for another 60 min, and the ADP-GLO reagent from Promega was then added. The resulting mixture was incubated in the dark for 40 min, a detection solution was then added, and the mixture was incubated for another 45-60 min. The chemiluminescence was determined using ENVISION. The inhibition rate and IC50 were calculated compared to the DMSO group.

MIA PaCa-2 cells [2] = experiment: In vitro anti-proliferative activity against MIA PaCa-2 cells (compound alone); format: cell-based; settings: intracellular ATP content
Description: as §1, with “cells/well.” for “cells/well, and 20 nM gemcitabine was added.”, “10 μM” for “1000 nM”

in vitro = settings: dog
Description: (§2) In vitro passive permeability or the ability to serve as a P-glycoprotein (P-gp) transport substrate was tested using MDCK cells (MDCK wild type) or MDCK cells stably transduced with MDRI (MDCK-MDRI), respectively. The permeability experiment was performed in duplicate in a transwell system at a single concentration (5 μM). The cells were incubated for […] Apical-to-basolateral (A to B, A-B) transport and basolateral-to-apical (B to A, B-A) transport of the corresponding compound were determined, and the permeation rate (apparent permeability) (Papp×10^−6 cm/sec) and efflux ratio (Papp (B−A)/Papp (A−B)) of the test compound were calculated.

[3] = test system: P-glycoprotein (P-gp, MDR1); experiment: in vitro; settings: dog; for Papp A→B / Papp B→A: 5 μM
Description: as §2

[4] = Homo sapiens, MIA PaCa-2, 72 h, read-out: Anti-proliferative activity against MIA PaCa-2 cells (20 nM gemcitabine) IC50, with 20 nM gemcitabine, 72 h, intracellular ATP content
[5] = read-out: Anti-proliferative activity against MIA PaCa-2 cells (20 nM gemcitabine) IC50, with 20 nM gemcitabine, 72 h, intracellular ATP content

Chain of recombinant protein MYT1 (Q99640 whole entry): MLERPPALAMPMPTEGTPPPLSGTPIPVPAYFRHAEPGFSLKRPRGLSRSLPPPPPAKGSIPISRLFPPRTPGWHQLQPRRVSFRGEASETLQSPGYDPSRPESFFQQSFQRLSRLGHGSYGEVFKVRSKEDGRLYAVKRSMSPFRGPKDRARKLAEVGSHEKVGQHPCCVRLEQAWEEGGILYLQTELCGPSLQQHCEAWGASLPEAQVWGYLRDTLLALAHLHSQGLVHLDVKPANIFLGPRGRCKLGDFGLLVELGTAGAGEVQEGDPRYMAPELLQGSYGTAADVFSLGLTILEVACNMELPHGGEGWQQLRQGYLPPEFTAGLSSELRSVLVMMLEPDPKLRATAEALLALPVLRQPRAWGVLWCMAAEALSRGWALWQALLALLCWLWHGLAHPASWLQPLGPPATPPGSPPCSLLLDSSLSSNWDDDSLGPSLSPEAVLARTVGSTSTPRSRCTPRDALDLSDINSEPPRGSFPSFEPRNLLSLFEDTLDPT

SMILES: Cc1cc2c(C(N)=O)c(N)n(-c3c(C)c(O)cc4c3CCC4)c2nc1C [Compound 116]
- IC50 (MIA PaCa-2 cells [1]; [4]): > 1000 nM

SMILES: Cc1ccc(O)c(C)c1-n1c(N)c(C(N)=O)c2cc3c(nc21)CCN(C)C3 [Compound 97]
- IC50 (recombinant protein MYT1): ≤ 200 nM
- IC50 (MIA PaCa-2 cells [2]; Homo sapiens, MIA PaCa-2, 72 h): > 10000 nM
- IC50 (MIA PaCa-2 cells [1]; [5]): 101 nM

SMILES: C[C@H]1O[C@@H](O[C@H]2[C@@H](O)C[C@H](O[C@H]3[C@@H](O)C[C@H](O[C@H]4CC[C@@]5(C)[C@H](CC[C@@H]6[C@@H]5C[C@@H](O)[C@]5(C)[C@@H](C7=CC(=O)OC7)CC[C@]65O)C4)O[C@@H]3C)O[C@@H]2C)C[C@H](O)[C@@H]1O [Digoxin]
- efflux ratio at 90 min, 5 μM (in vitro; MDCK): 2.69
- Papp A→B at 90 min, 5 µM (in vitro; MDCK, Papp A-B Mean): 1.79 ×10⁻⁶ cm/s
- Papp A→B at 90 min, 5 µM (in vitro; MDCK, Papp A-B Sample - 01): 1.9 ×10⁻⁶ cm/s
- Papp A→B at 90 min, 5 µM (in vitro; MDCK, Papp A-B Sample - 02): 1.68 ×10⁻⁶ cm/s
- Papp B→A at 90 min, 5 µM (in vitro; MDCK, Papp B-A Mean): 4.8 ×10⁻⁶ cm/s
- Papp B→A at 90 min, 5 µM (in vitro; MDCK, Papp B-A Sample - 01): 4.64 ×10⁻⁶ cm/s
- Papp B→A at 90 min, 5 µM (in vitro; MDCK, Papp B-A Sample - 02): 4.96 ×10⁻⁶ cm/s
- efflux ratio at 90 min, 5 μM ([3]; MDCK-MDR1): 21.4
- Papp A→B at 90 min, 5 µM ([3]; MDCK-MDR1, Papp A-B Mean): 0.96 ×10⁻⁶ cm/s
- Papp A→B at 90 min, 5 µM ([3]; MDCK-MDR1, Papp A-B Sample - 01): 0.96 ×10⁻⁶ cm/s
- Papp A→B at 90 min, 5 µM ([3]; MDCK-MDR1, Papp A-B Sample - 02): 0.96 ×10⁻⁶ cm/s
- Papp B→A at 90 min, 5 µM ([3]; MDCK-MDR1, Papp B-A Mean): 20.6 ×10⁻⁶ cm/s
- Papp B→A at 90 min, 5 µM ([3]; MDCK-MDR1, Papp B-A Sample - 01): 17.7 ×10⁻⁶ cm/s
- Papp B→A at 90 min, 5 µM ([3]; MDCK-MDR1, Papp B-A Sample - 02): 23.5 ×10⁻⁶ cm/s

SMILES: Cc1ccc(O)c(C)c1-n1c(N)c(C(N)=O)c2cc3c(nc21)COC3 [Compound 17]
- IC50 (recombinant protein MYT1): ≤ 200 nM
- IC50 (MIA PaCa-2 cells [2]; 72 h): > 10000 nM
- IC50 (MIA PaCa-2 cells [1]; [5]): > 1000 nM

SMILES: Cc1cc2c(C(N)=O)c(N)n(-c3c(C)cc(F)c(O)c3C)c2nc1C (single isomer, unassigned) [Compound 6]
- IC50 (recombinant protein MYT1): ≤ 200 nM
- IC50 (MIA PaCa-2 cells [2]; Homo sapiens, MIA PaCa-2, 72 h): > 10000 nM
- IC50 (MIA PaCa-2 cells [1]; [5]): 165 nM

SMILES: Cc1cc2c(C(N)=O)c(N)n(-c3c(C)cc(F)c(O)c3C)c2nc1C (single isomer, unassigned) [Compound 7]
- IC50 (recombinant protein MYT1): ≤ 200 nM
- IC50 (MIA PaCa-2 cells [2]; 72 h): > 10000 nM
- IC50 (MIA PaCa-2 cells [1]; [5]): > 1000 nM

SMILES: Cc1ccc(O)c(C)c1-n1c(N)c(C(N)=O)c2cc3c(nc21)CCN(C)C3 (atropisomer, axis not shown) [Compound 98]
- IC50 (recombinant protein MYT1): ≤ 200 nM
- IC50 (MIA PaCa-2 cells [2]; 72 h): > 10000 nM
- IC50 (MIA PaCa-2 cells [1]; [5]): > 1000 nM

SMILES: Cc1cc2c(C(N)=O)c(N)n(-c3c(C)ccc(O)c3C)c2nc1C#N [Compound 12]
- IC50 (recombinant protein MYT1): ≤ 200 nM
- IC50 (MIA PaCa-2 cells [1]; [4]): 228 nM

SMILES: Cc1ccc(O)c(C)c1-n1c(N)c(C(N)=O)c2cc(C#N)c(C)nc21 [Compound 10]
- IC50 (recombinant protein MYT1): ≤ 200 nM
- IC50 (MIA PaCa-2 cells [2]; 72 h): 4240 nM
- IC50 (MIA PaCa-2 cells [1]; [5]): 45 nM

SMILES: Cc1cc2c(C(N)=O)c(N)n(-c3c(C)c(O)cc(F)c3C)c2nc1C (single isomer, unassigned) [Compound 3]
- IC50 (recombinant protein MYT1): ≤ 200 nM
- IC50 (MIA PaCa-2 cells [2]; 72 h): > 10000 nM
- IC50 (MIA PaCa-2 cells [1]; [5]): 1230 nM

SMILES: Cc1cc2c(C(N)=O)c(N)n(-c3c(C)cc4c(c3C)NCC4)c2nc1C [Compound 150]
- IC50 (MIA PaCa-2 cells [1]; [4]): > 1000 nM

SMILES: Cc1cc2c(C(N)=O)c(N)n(-c3c(C)cc4cc[nH]c4c3C)c2nc1C [Compound 153]
- IC50 (recombinant protein MYT1): ≤ 200 nM
- IC50 (MIA PaCa-2 cells [1]; [4]): > 1000 nM

SMILES: Cc1ccc(O)c(C)c1-n1c(N)c(C(N)=O)c2cc3c(nc21)COC3 [Compound 16]
- IC50 (recombinant protein MYT1): ≤ 200 nM
- IC50 (MIA PaCa-2 cells [2]; Homo sapiens, MIA PaCa-2, 72 h): > 10000 nM
- IC50 (MIA PaCa-2 cells [1]; [5]): 101 nM

SMILES: Cc1ccc(O)c(C)c1-n1c(N)c(C(N)=O)c2cc(C#N)c(C)nc21 [Compound 11]
- IC50 (recombinant protein MYT1): ≤ 200 nM
- IC50 (MIA PaCa-2 cells [2]; 72 h): > 10000 nM
- IC50 (MIA PaCa-2 cells [1]; [5]): > 1000 nM

SMILES: Cc1cc2c(C(N)=O)c(N)n(-c3c(C)c(O)cc(F)c3Cl)c2nc1C [Compound 24]
- IC50 (recombinant protein MYT1): ≤ 200 nM

SMILES: Cc1c(O)cc(F)c(C)c1-n1c(N)c(C(N)=O)c2cc3c(nc21)COC3 [Compound 131]
- IC50 (recombinant protein MYT1): ≤ 200 nM

SMILES: Cc1ccc(O)c(C)c1-n1c(N)c(C(N)=O)c2cc3cn(C)cc3nc21 [Compound 73]
- IC50 (recombinant protein MYT1): ≤ 200 nM

SMILES: COCCc1ccc(OCC(O)CNC(C)C)cc1 (stereo not drawn) [Metoprolol, metoprolol]
- Papp A→B at 90 min, 5 µM (in vitro; Papp A-B Mean, MDCK-Wild type, A-B, 5 μM, mean): 24.3 ×10⁻⁶ cm/s
- Papp A→B at 90 min, 5 µM (in vitro; Papp A-B Sample - 01, MDCK-Wild type, A-B, 5 μM, replicate 01): 26.5 ×10⁻⁶ cm/s
- Papp A→B at 90 min, 5 µM (in vitro; Papp A-B Sample - 02, MDCK-Wild type, A-B, 5 μM, replicate 02): 22.2 ×10⁻⁶ cm/s
- Papp B→A at 90 min, 5 µM (in vitro; Papp B-A Mean, MDCK-Wild type, B-A, 5 μM, mean): 21.3 ×10⁻⁶ cm/s
- Papp B→A at 90 min, 5 µM (in vitro; Papp B-A Sample - 01, MDCK-Wild type, B-A, 5 μM, replicate 01): 18.6 ×10⁻⁶ cm/s
- Papp B→A at 90 min, 5 µM (in vitro; Papp B-A Sample - 02, MDCK-Wild type, B-A, 5 μM, replicate 02): 24 ×10⁻⁶ cm/s
- Papp A→B ([3]; MDCK-MDR1, Papp A-B Mean, MDCK-MDR1, A-B, mean): 37 ×10⁻⁶ cm/s
- Papp A→B ([3]; MDCK-MDR1, Papp A-B Sample - 01, MDCK-MDR1, A-B, replicate 01): 37.6 ×10⁻⁶ cm/s
- Papp A→B ([3]; MDCK-MDR1, Papp A-B Sample - 02, MDCK-MDR1, A-B, replicate 02): 36.3 ×10⁻⁶ cm/s
- Papp B→A ([3]; MDCK-MDR1, Papp B-A Mean, MDCK-MDR1, B-A, mean): 20.1 ×10⁻⁶ cm/s
- Papp B→A ([3]; MDCK-MDR1, Papp B-A Sample - 01, MDCK-MDR1, B-A, replicate 01): 20.1 ×10⁻⁶ cm/s
- Papp B→A ([3]; MDCK-MDR1, Papp B-A Sample - 02, MDCK-MDR1, B-A, replicate 02): 20.2 ×10⁻⁶ cm/s

SMILES: Cc1cc2c(C(N)=O)c(N)n(-c3c(C)cc4c(c3C)NCC4)c2nc1C [Compound 151]
- IC50 (MIA PaCa-2 cells [1]; [5]): > 1000 nM

SMILES: Cc1ccc(O)c(C)c1-n1c(N)c(C(N)=O)c2cc3c(nc21)COCC3 [Compound 32]
- IC50 (recombinant protein MYT1): ≤ 200 nM

SMILES: Cc1cc2c(C(N)=O)c(N)n(-c3c(C)c(O)cc(I)c3C)c2nc1C [Compound 217]
- IC50 (recombinant protein MYT1): ≤ 200 nM

SMILES: Cc1ccc(O)c(C)c1-n1c(N)c(C(N)=O)c2cc3ncsc3nc21 [Compound 69]
- IC50 (recombinant protein MYT1): ≤ 200 nM

SMILES: Cc1cc2c(C(N)=O)c(N)n(-c3c(C)cc(F)c(O)c3C)c2cc1C#N [Compound 169]
- IC50 (recombinant protein MYT1): ≤ 200 nM

SMILES: Cc1cc2c(C(N)=O)c(N)n(-c3c(C)c(O)cc4c3CCC4)c2nc1C (atropisomer, axis not shown) [Compound 117]
- IC50 (MIA PaCa-2 cells [1]; [5]): > 1000 nM

SMILES: Cc1cc2c(C(N)=O)c(N)n(-c3c(C)c(O)cc(F)c3C)c2nc1C (single isomer, unassigned) [Compound 1]
- IC50 (recombinant protein MYT1): ≤ 200 nM

SMILES: Cc1cc2c(C(N)=O)c(N)n(-c3c(C)cc4c(c3C)NCC4)c2nc1C [Compound 149]
- IC50 (recombinant protein MYT1): ≤ 200 nM

SMILES: Cc1ccc(O)c(C)c1-n1c(N)c(C(N)=O)c2cc3cnncc3cc21 [Compound 59]
- IC50 (recombinant protein MYT1): ≤ 200 nM

SMILES: Cc1c(O)cc(F)c(C)c1-n1c(N)c(C(N)=O)c2cc3c(nc21)C=CC3 [Compound 214]
- IC50 (recombinant protein MYT1): ≤ 200 nM

SMILES: Cc1ccc(O)c(C)c1-n1c(N)c(C(N)=O)c2cc3cccnc3nc21 [Compound 41]
- IC50 (recombinant protein MYT1): ≤ 200 nM

SMILES: Cc1cc2c(C(N)=O)c(N)n(-c3c(C)c(O)cc4c3CCC4)c2nc1C [Compound 115]
- IC50 (recombinant protein MYT1): ≤ 200 nM

SMILES: Cc1ccc(O)c(C)c1-n1c(N)c(C(N)=O)c2cc3ocnc3nc21 [Compound 68]
- IC50 (recombinant protein MYT1): ≤ 200 nM

Source: patent US20260001879A1, “COMPOUNDS AS MYT1 INHIBITORS” (WIGEN BIOMMEDICINE TECHNOLOGY (SHANGHAI) CO., LTD., priority 2022, published 2026)
